Test results as given in ChEMBL document CHEMBL4699655, “Optimization of the In Vivo Potency of Pyrazolopyrimidine MALT1 Protease Inhibitors by Reducing Metabolism and Increasing Potency in Whole Blood” (J Med Chem, 2020).

What was measured:
Rattus norvegicus [1] = assay: Anti-autoimmune disease activity in OFA rat model of T-cell dependent B cell response assessed as reduction in SRBC-induced IgM producing B cells dosed orally twice daily for 4 days starting 2 days prior to immunization by ex vivo plaque forming assay relative to control; assay type: functional
[2] = Lipophilicity, logP of the compound; conditions: octanol/water
[3] = Protein binding in human plasma; assay type: ADME, cell-free; conditions: read-out: PPB (converted)
[4] = Half life in rat at 1 mg/kg, iv via cassette dosing; assay type: ADME, organism-based; conditions: in vivo
[5] = Cmax in blood of OFA rat model of T-cell dependent B cell response at 3 mg/kg, po BID for 4 days starting 2 days prior to immunization and measured after 14 hrs; assay type: ADME, organism-based; set-up: route oral, dose 3 mg/kg, time 4 day
[6] = Intrinsic clearance in mouse liver microsomes; assay type: ADME, Microsome; conditions: read-out: CLH
[7] = Cmax in blood of OFA rat model of T-cell dependent B cell response at 10 mg/kg, po BID for 4 days starting 2 days prior to immunization and measured after 3 hrs; assay type: ADME, organism-based; set-up: route oral, dose 10 mg/kg, time 4 day
[8] = Cmax in blood of OFA rat model of T-cell dependent B cell response at 10 mg/kg, po BID for 4 days starting 2 days prior to immunization and measured after 14 hrs; assay type: ADME, organism-based; set-up: route oral, time 4 day, dose 10 mg/kg
[9] = Protein binding in rat plasma; assay type: ADME, cell-free; conditions: read-out: PPB (converted)
[10] = Clearance in rat at 1 mg/kg, iv via cassette dosing; assay type: ADME, organism-based; conditions: in vivo
Rattus norvegicus [11] = assay: Anti-autoimmune disease activity in OFA rat model of T-cell dependent B cell response assessed as reduction in SRBC-induced IgM producing B cells at 3 mg/kg, po BID for 4 days starting 2 days prior to immunization by ex vivo plaque forming assay relative to control; conditions: 96 h, read-out: INH
[12] = Intrinsic clearance in human liver microsomes; assay type: ADME, Microsome; conditions: read-out: CLH
[13] = Intrinsic clearance in rat liver microsomes; assay type: ADME, Microsome; conditions: read-out: CLH
[14] = Cmax in blood of OFA rat model of T-cell dependent B cell response at 3 mg/kg, po BID for 4 days starting 2 days prior to immunization and measured after 3 hrs; assay type: ADME, organism-based; set-up: route oral, dose 3 mg/kg, time 4 day
Rattus norvegicus [15] = assay: Anti-autoimmune disease activity in OFA rat model of T-cell dependent B cell response assessed as reduction in SRBC-induced IgM producing B cells at 10 mg/kg, po BID for 4 days starting 2 days prior to immunization by ex vivo plaque forming assay relative to control; conditions: 96 h, read-out: INH
[16] = Oral bioavailability in Sprague-Dawley rat at 3 mg/kg; assay type: ADME, organism-based; conditions: in vivo
[17] = Terminal half life in Sprague-Dawley rat at 1 mg/kg, iv; assay type: ADME, organism-based; conditions: in vivo, read-out: beta t1/2 (converted)
[18] = Cmax in Sprague-Dawley rat at 3 mg/kg, po; assay type: ADME, organism-based; set-up: route oral, dose 3 mg/kg; conditions: in vivo
[19] = AUC (0 to 24 hrs) in Balb/C mouse at 3 mg/kg, po; assay type: ADME, organism-based; set-up: time < 24 hr, route oral, dose 3 mg/kg; conditions: in vivo
[20] = Clearance in Balb/C mouse at 1 mg/kg, iv; assay type: ADME, organism-based; conditions: in vivo
[21] = Clearance in Sprague-Dawley rat at 1 mg/kg, iv; assay type: ADME, organism-based; conditions: in vivo
[22] = Terminal half life in Balb/C mouse at 1 mg/kg, iv; assay type: ADME, organism-based; conditions: in vivo, read-out: beta t1/2 (converted)
[23] = AUC (0 to 24 hrs) in Sprague-Dawley rat at 3 mg/kg, po; assay type: ADME, organism-based; set-up: time < 24 hr, route oral, dose 3 mg/kg; conditions: in vivo
[24] = Apparent volume of distribution at steady state in Balb/C mouse at 1 mg/kg, iv; assay type: ADME, organism-based; conditions: in vivo, read-out: Vdss(app)
[25] = Apparent volume of distribution at steady state in Sprague-Dawley rat at 1 mg/kg, iv; assay type: ADME, organism-based; conditions: in vivo, read-out: Vdss(app)
[26] = Oral bioavailability in Balb/C mouse at 3 mg/kg; assay type: ADME, organism-based; conditions: in vivo
[27] = Cmax in Balb/C mouse at 3 mg/kg, po; assay type: ADME, organism-based; set-up: route oral, dose 3 mg/kg; conditions: in vivo
[28] = molecular target: T1, Mucosa-associated lymphoid tissue lymphoma translocation protein 1 (Homo sapiens, UniProt Q9UDY8); assay: Inhibition of MALT1 in human whole blood assessed as reduction in PMA//anti-CD28 antibody-induced IL2 level pre-incubated for 1 hrs before stimulation with PMA//anti-CD28 antibody by MSD assay; assay type: tissue-based
T1 sequence (Q9UDY8 whole entry): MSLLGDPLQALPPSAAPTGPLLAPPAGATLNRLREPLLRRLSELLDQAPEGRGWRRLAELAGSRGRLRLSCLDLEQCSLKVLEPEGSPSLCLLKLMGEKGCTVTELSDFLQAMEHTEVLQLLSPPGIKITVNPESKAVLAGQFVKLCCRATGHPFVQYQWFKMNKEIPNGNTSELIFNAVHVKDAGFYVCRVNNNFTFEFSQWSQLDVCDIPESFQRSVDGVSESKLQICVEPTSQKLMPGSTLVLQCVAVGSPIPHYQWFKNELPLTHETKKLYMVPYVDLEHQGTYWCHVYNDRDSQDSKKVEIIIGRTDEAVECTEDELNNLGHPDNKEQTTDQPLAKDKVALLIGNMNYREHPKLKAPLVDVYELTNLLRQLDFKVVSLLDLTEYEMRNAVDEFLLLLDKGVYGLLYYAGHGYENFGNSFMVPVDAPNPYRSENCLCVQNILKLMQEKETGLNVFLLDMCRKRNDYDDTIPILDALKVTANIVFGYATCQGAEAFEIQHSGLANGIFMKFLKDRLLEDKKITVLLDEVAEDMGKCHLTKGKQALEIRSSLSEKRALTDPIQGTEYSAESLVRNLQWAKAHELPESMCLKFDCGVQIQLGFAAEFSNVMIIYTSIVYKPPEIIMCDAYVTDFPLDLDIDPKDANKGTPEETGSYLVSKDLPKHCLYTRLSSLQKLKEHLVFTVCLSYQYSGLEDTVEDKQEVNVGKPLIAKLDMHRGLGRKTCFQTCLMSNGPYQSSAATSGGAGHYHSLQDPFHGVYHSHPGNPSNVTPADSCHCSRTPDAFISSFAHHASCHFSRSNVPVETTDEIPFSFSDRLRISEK

[29] = molecular target: T2, Mucosa-associated lymphoid tissue lymphoma translocation protein 1 (Homo sapiens) (UniProt Q9UDY8); assay: Ratio of IC50 for inhibition of MALT1 in human whole blood assessed as reduction in PMA//anti-CD28 antibody-induced IL2 level to IC50 for inhibition of MALT1 in PMA-stimulated human Jurkat T cells assessed as reduction in IL2 level; assay type: tissue-based
T2 sequence (whole entry): T1 sequence (Q9UDY8 whole entry)

[30] = Clearance in mouse; assay type: ADME, organism-based; conditions: in vivo
[31] = Clearance in rat; assay type: ADME; conditions: in vivo
[32] = molecular target: T1, Mucosa-associated lymphoid tissue lymphoma translocation protein 1; assay: Inhibition of MALT1 (unknown origin) using Ac-Trp-Leu-Arg-Ser-Arg^Cys(PT14)-NH2 as substrate preincubated for 60 mins followed by substrate addition and measured after 60 mins by fluorescence assay

Structure (SMILES) | logP [2] | fraction unbound [3] | microsomal CLint [6] [µL/min/mg] | fraction unbound [9] | microsomal CLint [12] [µL/min/mg] | microsomal CLint [13] [µL/min/mg] | other results
CC(C)c1c(NC(=O)Nc2cnc(-n3nccn3)c(Cl)c2)cnc2cc(Cl)nn12 | 4 | < 0.01 | < 25 | < 0.01 | < 25 | < 25 | ED50 (Rattus norvegicus [1]; po, 96 h, time 4 day): 3 mg/kg; Activity (Rattus norvegicus [1]; time 4.0 day): Dose-dependent effect; half-life [4]: 5.4 h; Cmax [5]: 400 nM; Cmax [7]: 7600 nM; Cmax [8]: 3300 nM; clearance [10]: 18 mL/min/kg; inhibition in vivo at 3 mg/kg (Rattus norvegicus [11]): 60%; Cmax [14]: 1500 nM; inhibition in vivo at 10 mg/kg (Rattus norvegicus [15]): 96%
O=C(Nc1cnc(-n2nccn2)c(Cl)c1)Nc1cnc2cc(Cl)nn2c1C1CC1 | 3.2 | < 0.01 | < 25 | 0.013 | < 25 | 50.4 | 
CC(C)c1c(NC(=O)Nc2ccnc(C(F)(F)F)c2)cnc2cc(Cl)nn12 |  |  |  |  | 61 | < 25 | 
COCc1c(NC(=O)Nc2cnc(-n3nccn3)c(Cl)c2)cnc2cc(Cl)nn12 | 3 | 0.019 |  | 0.035 | < 25 | < 25 | 
Cc1c(NC(=O)Nc2ccnc(C(F)(F)F)c2)cnc2cc(Cl)nn12 |  |  |  |  | < 25 | < 25 | IC50 [32]: 0.998 µM

Further lines, with some results ahead:

logP [2] | fraction unbound [3] | microsomal CLint [6] [µL/min/mg] | fraction unbound [9] | microsomal CLint [12] [µL/min/mg] | microsomal CLint [13] [µL/min/mg] | Structure (SMILES) | other results
 | 0.038 | < 25 | 0.027 | < 25 | < 25 | CO[C@@H](C)c1c(NC(=O)Nc2ccnc(C(F)(F)F)c2)cnc2cc(Cl)nn12 | bioavailability [16]: 86%; half-life [17]: 9.6 h; Cmax [18]: 700 nM; AUC [19]: 2.3 µM·h; clearance [20]: 28 mL/min/kg; clearance [21]: 9 mL/min/kg; half-life [22]: 1.2 h; AUC [23]: 13.4 µM·h; Vd [24]: 3 L/kg; Vd [25]: 5.3 L/kg; bioavailability [26]: 50%; Cmax [27]: 500 nM
 | 0.023 |  | 0.032 |  | < 25 | CO[C@H](C)c1c(NC(=O)Nc2cnc(-n3nccn3)c(Cl)c2)cnc2cc(Cl)nn12 | 
3.4 | 0.015 |  | 0.011 | < 25 | 70.1 | COC[C@@H](C)c1c(NC(=O)Nc2cnc(-n3nccn3)c(Cl)c2)cnc2cc(Cl)nn12 | 
 |  |  |  | 114 |  | C[C@H]1COC[C@H](C)N1c1c(NC(=O)Nc2ccnc(C(F)(F)F)c2)cnc2cc(Cl)nn12 | IC50 [28]: 9 µM; half-life [4]: 3.3 h; Ratio IC50 [29]: 50; clearance [10]: 46 mL/min/kg; clearance [30]: 15 mL/min/kg; clearance [31]: 25 mL/min/kg
3.4 | 0.014 | < 25 | 0.012 | 81.4 | 60.9 | COC[C@H](C)c1c(NC(=O)Nc2cnc(-n3nccn3)c(Cl)c2)cnc2cc(Cl)nn12 | 
3 | 0.012 |  | 0.023 | < 25 | 25.5 | O=C(Nc1cnc(-n2nccn2)c(Cl)c1)Nc1cnc2cc(Cl)nn2c1C1CCOCC1 | 
